# According to ChEMBL document CHEMBL1671852, “In vitro activities of linezolid against clinical isolates of Mycobacterium tuberculosis complex isolated in Taiwan over 10 years” (2008):
# Test system: Mycobacterium tuberculosis
# Assay: Antibacterial activity against Mycobacterium tuberculosis H37Rv by agar proportion method
# Format: functional
smiles,measurement,value
CC(=O)NC[C@H]1CN(c2ccc(N3CCOCC3)c(F)c2)C(=O)O1 [LINEZOLID],MIC,0.5 µg/mL
